The subject of data set [1] is kainate receptor. The conditions noted are these: rat; Narita et al. 1993; cited from earlier work.
Data set [2] has as its system rat's running activity in the night. Nature of the data set: Running-wheel activity in the night after intraperitoneal administration (Example 1). In kind it is in vivo. The conditions noted are these: ip, rats. The method, then: Rats (Wistar-Imamichi; 7-week-old) were kept in a cage equipped with a running wheel. The animals were kept under such lighting conditions that the lighting was initiated at 7:00 and it was stopped at 19:00, while the animals were allowed to freely eat diet and drink water. They were kept over 3 weeks without subjecting them to any treatment or they were not subjected to any treatment until they sufficiently habituated to the keeping environment or the cage.
These animals were treated by intraperitoneal administration of GABAB receptor agonist, SKF97541, in an amount of 1.0 mg/kg or 0.5 mg/kg at around 18:00. A group of these animals to which physiological saline had separately been administered was used as a control group. Regarding the quantity of running, the counts detected by a sensor equipped with a running wheel were inputted to a computer at intervals of 30 minutes to thus evaluate the accumulated counts in the night, which was defined to be the quantity of acts in the night. Thus, the relative rate of the accumulated count observed for the individual animal was calculated while the accumulated count observed for each animal prior to the treatment was assumed to be 1.

Data set [3] relates to intentional motions of rats. In words: Forced swimming test, strokes by the forelimbs (Example 2). The format is in vivo, rat. The conditions noted are these: 0.5 mg/kg intraperitoneal, 30 minutes to 3 hours after administration, versus saline control, FIG. 2. The method, then: A GABAB receptor agonist, SKF97541, was intraperitoneally administered to rats, which had been kept under the same conditions used in Example 1, in an amount of 0.5 mg/kg and these animals were put in water maintained at a temperature ranging from 35 to 37° C. after 30 minutes to 3 hours from the administration of the […]. […] The rats were forced to swim in the pool to determine the number of strokes by the forelimbs of these animals per 5 minutes. A group of these animals to which physiological saline had separately been administered was used as a control group.

Data set [4] concerns poriomaniac behavior of dog. Nature of the data set: Night activity of a demented dog with poriomania, recorded by CCD camera (Example 5). In kind it is in vivo. Here is the method:
A male Pomeranian of 11 years old was used. The dog was established to have been demented and to have suffered from poriomania. About 200 g of a canned feed for dogs (Maintenance Canned Beef available from Nippon Hills Colgate Company) per day was fed to this animal in two portions in the morning and evening. On the other hand, water was available ad libitum.
The experiment was conducted in the laboratory under controlled conditions of room temperature of about 22° C. The cage (150 cm×90 cm) was illuminated by infrared light and the activity of the experimental animal in the night was detected by a monochrome CCD camera. The traces of activity were recorded on a microcomputer every 10 minutes. The traces were recorded for 2 days before treatment, after the animal was maintained and acclimatized to the conditions, and the records were used as the pre-treatment data. The data recording started at about 18:00 and the activity was recorded for 800 minutes.
The migration time is the time of the migration of the animal during the experiment. The migration length is the distance of migration of the animal during the experiment. The start of poriomaniac behavior was defined as the start of migration came after the quiescent state of not less than 10 minutes and the end of the poriomaniac behavior was defined as the stop of migration which was confirmed to be maintained for […] 10 minutes. One incident of the poriomaniac behavior was defined as the behavior from the start to the end of the aforementioned migration. One episode means one incident of the poriomaniac behavior.

The nature of data set [5]: General symptoms in the similar dog experiment (Example 5). The format is in vivo. The settings on record: similar experiment with GABA.
The mark [6] stands for this setting: 150 mg powdered GABA in food at 18:00, post-treatment, 800 minutes recording.

Take `C=C(C)[C@H]1CN[C@H](C(=O)O)[C@H]1CC(=O)O` [kainate]: in data set [1], the “induction of running activity” value is “induced”.
On to `O=C1N=c2cc([N+](=O)[O-])c([N+](=O)[O-])cc2=NC1=O` [DNQX, 6,7-dinitroquinoxaline-2,3-dione], for which, in data set [1], the “inhibition of running activity induced by kainate” value is listed as “inhibited”.
In the case of `CP(=O)(O)CCCN` [SKF97541, 3-aminopropyl (methyl) phosphinic acid], in data set [2] (0.5 mg/kg intraperitoneal at around 18:00, FIG. 1, read-out: inhibitory effect on quantity of running activity in the night, relative to the control group), the inhibition at 0.5 mg/kg was 40 to 60%. Also, the inhibition at 1 mg/kg in data set [2] (1.0 mg/kg intraperitoneal at around 18:00, estimated, FIG. 1, read-out: inhibitory effect on quantity of running activity in the night, relative to the control group) is about 70%. Also, the “number of strokes by the forelimbs per 5 minutes” value in data set [3] is on record as “not reduced”.
`NCCCC(=O)O` [GABA, γ-aminobutyric acid]: in data set [4] (150 mg of GABA), the “change in each parameter compared to pre-treatment data” value was “significant decrease”. In data set [4] (setting [6]), the “mean duration time of each episode” value came out at 0.7 min, the migration length is 44.7 cm, the migration time was 1.4 min and the number of episodes is recorded as 2. For the same compound, the general symptoms entry in data set [5] is “no particular notable events were observed”.

Values taken from patent US20010051618A1 (priority 2000, published 2001).
